Calls of active or inactive are those of the source. Rule as the data show it, for most assays here: actives have a measured EC50 and inactives only a lower limit.
How the values were obtained:
[1] = target: T1, Heat shock factor protein 1 (Mus musculus, UniProt P38532); test: decrease of HSF1-responsive luciferase luminescence – cell-based, NIH3T3, dose retest, confirmation (AID 2382); format: functional;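 also: NIH3T3 fibroblasts with HSF1-driven luciferase reporter stressed by proteasome inhibitor MG132; luminescence from HSF1-driven luciferase expression after 8 hours of MG132 stress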
T1 sequence (P38532 whole entry): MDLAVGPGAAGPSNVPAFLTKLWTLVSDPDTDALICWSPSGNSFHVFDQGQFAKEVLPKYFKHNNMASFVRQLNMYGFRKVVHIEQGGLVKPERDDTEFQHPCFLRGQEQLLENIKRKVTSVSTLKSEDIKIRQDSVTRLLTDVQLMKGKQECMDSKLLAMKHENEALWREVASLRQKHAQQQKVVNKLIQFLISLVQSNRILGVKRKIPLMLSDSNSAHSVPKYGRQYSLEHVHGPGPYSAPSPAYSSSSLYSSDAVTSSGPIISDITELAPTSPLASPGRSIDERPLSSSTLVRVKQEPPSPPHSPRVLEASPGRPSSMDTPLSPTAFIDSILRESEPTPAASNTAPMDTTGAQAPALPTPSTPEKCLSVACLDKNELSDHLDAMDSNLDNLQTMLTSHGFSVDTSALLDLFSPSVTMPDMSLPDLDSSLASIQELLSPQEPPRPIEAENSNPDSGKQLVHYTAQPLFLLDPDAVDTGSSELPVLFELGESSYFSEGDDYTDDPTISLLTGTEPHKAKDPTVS

[2] = tested on: Streptococcus sp. 'group A'; test: Streptococcus pyogenes SK(-)GAS viability under kanamycin – luminescence, BacTiterGlo, confirmation, counter-screen for streptokinase expression inhibitor project, dose response (AID 1900); format: functional, organism-based
Streptokinase A = target: T2, Streptokinase A (Streptococcus pyogenes serotype M1, UniProt P10520); test: viability-normalized secreted streptokinase activity reduction – plasminogen activation absorbance, OD405, dose response (AID 1914); format: functional, Streptococcus pyogenes M1 GAS;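 also: secreted streptokinase activity via plasminogen activation per viability signal from cell pellet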
T2 sequence (P10520 whole entry): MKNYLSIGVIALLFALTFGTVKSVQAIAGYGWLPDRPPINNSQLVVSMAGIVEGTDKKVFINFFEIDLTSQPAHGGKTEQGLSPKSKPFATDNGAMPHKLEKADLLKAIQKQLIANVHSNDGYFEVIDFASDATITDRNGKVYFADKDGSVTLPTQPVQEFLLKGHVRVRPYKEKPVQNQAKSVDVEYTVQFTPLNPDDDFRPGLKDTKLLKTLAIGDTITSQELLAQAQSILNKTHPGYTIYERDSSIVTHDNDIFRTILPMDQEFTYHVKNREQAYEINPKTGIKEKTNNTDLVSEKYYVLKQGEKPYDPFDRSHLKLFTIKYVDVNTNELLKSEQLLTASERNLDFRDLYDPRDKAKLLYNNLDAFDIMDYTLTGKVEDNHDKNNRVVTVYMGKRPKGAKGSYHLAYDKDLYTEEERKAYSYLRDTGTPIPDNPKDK

Streptococcus = test: GAS UMAA2166 growth inhibition – luminescence, BacTiterGlo, counter-screen for streptokinase expression inhibitor project, dose response (AID 1915); format: functional, organism-based;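 also: potency for reduction of bacterial viability or growth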
[3] = viability of uninfected HEp-2 cells – cell-based, HTS, cytotoxicity control for RSV inhibitor project, dose response (AID 2410); format: functional; conditions: human respiratory syncytial virus
[4] = Luminescence Cell-Based Dose Retest to Confirm Inhibitors of Cancer Stem Cells. [Related pubchem assays (depositor defined):AID2717, AID2721]; format: functional; conditions: Homo sapiens
[5] = target: T1, Heat shock factor protein 1; test: enhancement of HSF1-driven luciferase signal – cell-based, NIH3T3, luminescence, dose retest, confirmation (AID 435004); format: functional;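 also: stress induced by proteasome inhibitor MG132 added 30 min after compound; luciferase reporter driven by HSF1 response element in NIH3T3 cells; actives raise luminescence as potentiators of the MG132 stress response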
Cytochrome P450 1A2 = target: T3, Cytochrome P450 1A2 (Homo sapiens, UniProt P05177);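 also: PubChem cytochrome P450 panel assay, CYP1A2 panel member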
T3 sequence (P05177 whole entry): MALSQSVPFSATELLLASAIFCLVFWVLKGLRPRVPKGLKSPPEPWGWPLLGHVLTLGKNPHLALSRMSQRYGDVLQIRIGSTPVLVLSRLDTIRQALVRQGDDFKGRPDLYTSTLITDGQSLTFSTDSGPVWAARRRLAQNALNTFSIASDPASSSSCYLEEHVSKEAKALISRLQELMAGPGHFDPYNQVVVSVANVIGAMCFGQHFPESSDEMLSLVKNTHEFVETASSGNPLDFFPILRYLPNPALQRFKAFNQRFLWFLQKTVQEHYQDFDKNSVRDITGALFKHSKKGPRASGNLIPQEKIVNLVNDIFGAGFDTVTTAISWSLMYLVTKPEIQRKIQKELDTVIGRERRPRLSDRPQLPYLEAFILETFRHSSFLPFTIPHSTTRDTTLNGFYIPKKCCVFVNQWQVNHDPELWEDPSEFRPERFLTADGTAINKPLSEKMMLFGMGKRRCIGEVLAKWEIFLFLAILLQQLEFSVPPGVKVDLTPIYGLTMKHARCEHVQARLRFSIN

## Nc1ccc(S(=O)(=O)N2CCC(Cc3ccccc3)CC2)cc1
[1]
  EC50: > 195 µM (not active)

## COc1cccc(N=Nc2c(N)nn3c(O)cc(-c4ccccc4)nc23)c1
[2]
  EC50: 2.27 µM (active)
Streptokinase A
  EC50: > 150 µM (not active)
Streptococcus
  EC50: 31.3 µM (active)

## CC1CCN(CC(=O)c2cccs2)CC1
[1]
  EC50: > 195 µM (not active)

## O=C(Nc1ccccc1)c1ccc2c(c1)CCN2S(=O)(=O)c1ccccc1
[3]
  CC50: 16 µM (active)

## CN(C(=O)CN1C(=O)S/C(=C\c2ccccc2)C1=O)C1CCS(=O)(=O)C1 (stereo unspecified)
[1]
  EC50: > 195 µM (not active)

## Cc1cc(/C=C2\SC(=S)N(Cc3ccco3)C2=O)c(C)n1-c1ccccc1
[1]
  EC50: 1.57 µM (active)
[4]
  AC50: 2.2 µM (active)

## O=C(CSC(=S)N1CCCCC1)Nc1ncc2c(n1)CCCC2=O
[1]
  EC50: > 195 µM (not active)

## CC(NNc1ccccc1)=C1C(=O)N(C)C(=O)N(C)C1=O
[4]
  AC50: 1.81 µM (active)

## O=C1c2ccccc2C(Nc2ccc3c(c2)OCCO3)N1c1ccc(Cl)cn1 (stereo unspecified)
[1]
  EC50: > 195 µM (not active)

## O=C(NNc1ccccc1)C(=O)N1CCCCC1
[4]
  AC50: 1.03 µM (active)

## O=S(=O)(NCCSCc1c(Cl)cccc1Cl)c1ccc2c(c1)OCCO2
[2]
  EC50: 11.6 µM (active)
Streptokinase A
  EC50: > 150 µM (not active)
Streptococcus
  EC50: 24.5 µM (active)

## Cc1ccc(NC(=S)Nc2cccc3ccccc23)cc1
[1]
  EC50: > 195 µM (not active)

## CCOC(=O)Cn1c(=O)oc2cc(S(=O)(=O)NCCC(C)C)ccc21
[1]
  EC50: > 195 µM (not active)

## COc1cccc(C(=O)Nc2ccc3c(C)cc(=O)oc3c2)c1
[5]
  EC50: > 260 µM (inactive)

## CCN(c1ccc(NC(=O)CCc2nc(O)c3c4c(sc3n2)CCCC4)cc1)C(C)C
[4]
  AC50: 4.71 µM (active)

## CCCC/C(C)=C/[C@@H](NP(=O)(c1ccccc1)c1ccccc1)c1ccccc1
[4]
  AC50: 6.1 µM (active)

## COc1ccccc1-c1cc(=O)c2c(O)ccc([N+](=O)[O-])c2o1
[2]
  EC50: 1.4 µM (active)
Streptokinase A
  EC50: > 150 µM (not active)
Streptococcus
  EC50: 10.4 µM (active)

## CC(C)Cc1nnc(NC(=O)CCC(=O)N2CCN(c3ccccc3)CC2)s1
[2]
  EC50: > 150 µM (not active)
Streptokinase A
  EC50: > 150 µM (not active)
Streptococcus
  EC50: > 150 µM (not active)

## CCCCCCSc1cccc(-c2nc3cc(C)ccn3c2NC2CCCCC2)c1
[4]
  AC50: 4.23 µM (active)

## CC1CCCN(C(=O)c2ccccc2OC2CCN(S(C)(=O)=O)CC2)C1 (stereo unspecified)
[5]
  EC50: > 260 µM (inactive)

## COc1cccc(-c2c(C(=O)N/N=C(\C)c3ccc(Cl)s3)nnn2-c2nonc2N)c1
[5]
  EC50: 51.8 µM (active)

## O=c1c(/C=N\NS(=O)(=O)c2ccccc2)coc2ccc(Cl)cc12
[1]
  EC50: 44.5 µM (active)

## CCOC(=O)c1cc2c(=O)n3ccccc3nc2n(CCOC)/c1=N/C(=O)c1c(-c2c(F)cccc2Cl)noc1C
[3]
  CC50: 5.3 µM (active)

## COc1cc(/C=N/N2CCN(Cc3ccccc3)CC2)cc(OC)c1OC(C)=O
[1]
  EC50: > 195 µM (not active)

## COc1ccc(S(=O)(=O)N/N=C(/C)c2ccncc2)cc1
[2]
  EC50: > 150 µM (not active)
Streptokinase A
  EC50: > 150 µM (not active)
Streptococcus
  EC50: > 150 µM (not active)

## CCCCC/C=C\C/C=C\C/C=C\C/C=C\CCCC(=O)Nc1ccc(O)cc1
[2]
  EC50: 0.827 µM (active)
Streptokinase A
  EC50: > 150 µM (inconclusive)
Streptococcus
  EC50: 3.32 µM (active)
Cytochrome P450 1A2
  AC50: 20 µM (inconclusive)

## NS(=O)(=O)c1cc2c(cc1Cl)NCNS2(=O)=O [HYDROCHLOROTHIAZIDE]
[1]
  EC50: > 195 µM (not active)
